In paper PMC11062899, “De novo development of small cyclic peptides that are orally bioavailable” (Nature Chemical Biology, 2023):
Where “and” joins values, the source holds several entries; their conditions need not be identical. Equal entries are not always repeated.

Columns and labels:
porcine pancreatin = assay: Peptide stability in simulated intestinal fluid (SIF); assay type: in vitro ADME; conditions: after 8 h vs 0 h (TIC); average of R1-R3
Protocol: (§1) Simulated gastric and intestinal fluids were prepared according to the States Pharmacopeia specifications (Test Solutions, United States Pharmacopeia 35, NF 30, 2012). SGF: 0.2 g of sodium chloride was dissolved in 50 ml of water, and the pH was adjusted to 1.2 by addition of 0.7 ml of 10 M hydrochloric acid. Then, 0.32 g of porcine pepsin (Sigma-Aldrich, P7125) was dissolved under gentle agitation, and the volume was filled up to 100 ml with Milli-Q water. SIF: 0.68 g of monobasic potassium phosphate was dissolved in 25 ml of Milli-Q water, and the pH was adjusted to 6.8 by adding 7.7 ml of a 0.2 M sodium hydroxide solution. Next, 1 g of porcine pancreatin (Sigma-Aldrich, P3292) was added under gentle agitation, and the volume was adjusted to 100 ml with Milli-Q water to afford a fine suspension. To test the stability in simulated gastrointestinal fluids, 396 μl of SGF or SIF was pre-heated at 37 °C for 10 min, and 4 μl of a 1 mM peptide solution in DMSO was added. […] Supernatant was analyzed by LC–MS to measure the peptide concentrations at the different timepoints. Residual peptide was calculated by normalizing the concentrations measured at T1 to T0.

[1] = as above; assay type: in vitro ADME, porcine; conditions: simulated gi fluid; 8 h, 37 °C, pH 6.8; read-out: Proteolytic stability: SIF (8 h) % remaining
Protocol: as §1

porcine pepsin = target: T1, porcine pepsin (Sus scrofa, UniProt P00791); assay: Peptide stability in simulated gastric fluid (SGF); assay type: in vitro ADME
T1 construct: 0.32 g of porcine pepsin (Sigma-Aldrich, P7125) was dissolved under gentle agitation; purchased Sigma-Aldrich P7125
T1 sequence (P00791 60-385): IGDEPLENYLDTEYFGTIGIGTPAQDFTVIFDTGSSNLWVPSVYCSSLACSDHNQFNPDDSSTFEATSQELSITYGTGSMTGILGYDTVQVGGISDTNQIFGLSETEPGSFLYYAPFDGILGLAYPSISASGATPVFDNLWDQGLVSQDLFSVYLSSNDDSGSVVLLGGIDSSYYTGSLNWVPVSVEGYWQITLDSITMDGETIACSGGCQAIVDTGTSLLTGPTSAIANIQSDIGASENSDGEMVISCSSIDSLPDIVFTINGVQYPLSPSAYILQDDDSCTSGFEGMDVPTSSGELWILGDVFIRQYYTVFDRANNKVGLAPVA
Protocol: as §1

human α-thrombin = human α-thrombin (Homo sapiens, UniProt P00734); assay: Protease inhibition, Ki for human α-thrombin (fluorogenic substrate Z-Gly-Gly-Arg-AMC); assay type: biochemical; conditions: replicates R1-R3
How it was run: (§2)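 Ki derived through Cheng–Prusoff from IC50s (four-parameter logistic fit) against activity of peptide-free controls. Product fluorescence was read every 3 min over 30 min at 25 °C, substrate Z-Gly-Gly-Arg-AMC at 50 μM. Enzyme was 2 nM human or 3 nM rat α-thrombin, pH 7.4 buffer.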

[2] = Passive artificial membrane permeability (PAMPA)
[3] = Metabolic stability in rat liver microsomes (RLMs); conditions: rat, microsomes
rat α-thrombin = target: T2, rat α-thrombin (Rattus norvegicus, UniProt P18292); assay: Protease inhibition, Ki for rat α-thrombin (fluorogenic substrate Z-Gly-Gly-Arg-AMC); assay type: biochemical; conditions: replicates R1-R3
T2 construct: rat α-thrombin (Molecular Innovations) were used at final concentrations of 2 nM and 3 nM; purchased Molecular Innovations
How it was run: as §2

[4] = peptide 1.33E+02 uM, slope of proteolytic substrate cleavage over time

Structure (SMILES): C[C@@H]1NC(=O)[C@@H](NC(=O)c2ccc(Cl)s2)CNC(=O)CCSCc2cccc(n2)CSCCNC1=O [compound 18]
- SIF stability, Residual peptide Average (porcine pancreatin): 98.53
- remaining at 8 h [1]: 99 ± 9%
- SGF stability, Residual peptide Average (porcine pepsin; after 8 h vs 0 h (TIC), average of R1-R3): 99.57
- SGF stability, Residual peptide (porcine pepsin; after 8 h vs 0 h (TIC), single replicates R1-R3): 102.25 and 97.75 and 98.72
- remaining at 8 h (porcine pepsin; simulated gi fluid, 8 h, 37 °C, pH 1.2, read-out: Proteolytic stability: SGF (8 h) % remaining): 100 ± 2%
- Human alpha thrombin inhibition, slope normalized to DMSO (human α-thrombin; peptide 1.02E-03 uM): 93.1 and 89.2 and 94.7
- Human alpha thrombin inhibition, slope normalized to DMSO (human α-thrombin; peptide 1.04E+00 uM): 93.7 and 88.7 and 98.8
- Human alpha thrombin inhibition, slope normalized to DMSO (human α-thrombin; peptide 1.27E-04 uM): 100.2 and 94.8 and 98.1
- Human alpha thrombin inhibition, slope normalized to DMSO (human α-thrombin; peptide 1.30E-01 uM): 94.8 and 90.7 and 96.5
- Human alpha thrombin inhibition, slope normalized to DMSO (human α-thrombin; [4]): 52.1 and 50.8 and 55.1
- Human alpha thrombin inhibition, slope normalized to DMSO (human α-thrombin; peptide 1.63E-02 uM): 97.1 and 95.8 and 94.6
- Human alpha thrombin inhibition, slope normalized to DMSO (human α-thrombin; peptide 1.67E+01 uM): 73.4 and 68.5 and 72.3
- Human alpha thrombin inhibition, slope normalized to DMSO (human α-thrombin; peptide 2.03E-03 uM): 97.3 and 94.1 and 99.2
- Human alpha thrombin inhibition, slope normalized to DMSO (human α-thrombin; peptide 2.08E+00 uM): 89.4 and 90.0 and 79.4
- Human alpha thrombin inhibition, slope normalized to DMSO (human α-thrombin; peptide 2.54E-04 uM): 98.0 and 92.5 and 94.6
- Human alpha thrombin inhibition, slope normalized to DMSO (human α-thrombin; peptide 2.60E-01 uM): 94.5 and 91.9 and 98.0
- Human alpha thrombin inhibition, slope normalized to DMSO (human α-thrombin; peptide 3.18E-05 uM): 100.9 and 96.3 and 98.9
- Human alpha thrombin inhibition, slope normalized to DMSO (human α-thrombin; peptide 3.26E-02 uM): 93.0 and 91.8 and 94.1
- Human alpha thrombin inhibition, slope normalized to DMSO (human α-thrombin; peptide 3.33E+01 uM): 68.4 and 72.8 and 70.8
- Human alpha thrombin inhibition, slope normalized to DMSO (human α-thrombin; peptide 4.07E-03 uM): 96.7 and 91.0 and 96.0
- Human alpha thrombin inhibition, slope normalized to DMSO (human α-thrombin; peptide 4.17E+00 uM): 85.6 and 83.5 and 84.3
- Human alpha thrombin inhibition, slope normalized to DMSO (human α-thrombin; peptide 5.09E-04 uM): 95.1 and 89.7 and 99.5
- Human alpha thrombin inhibition, slope normalized to DMSO (human α-thrombin; peptide 5.21E-01 uM): 94.5 and 87.9 and 92.4
- Human alpha thrombin inhibition, slope normalized to DMSO (human α-thrombin; peptide 6.36E-05 uM): 96.8 and 88.2 and 100.6
- Human alpha thrombin inhibition, slope normalized to DMSO (human α-thrombin; peptide 6.51E-02 uM): 133.7 and 92.1 and 94.3
- Human alpha thrombin inhibition, slope normalized to DMSO (human α-thrombin; peptide 6.67E+01 uM): 63.9 and 63.5 and 65.7
- Human alpha thrombin inhibition, slope normalized to DMSO (human α-thrombin; peptide 8.14E-03 uM): 96.2 (2×) and 90.9
- Human alpha thrombin inhibition, slope normalized to DMSO (human α-thrombin; peptide 8.33E+00 uM): 81.3 and 78.4 and 82.3
- PAMPA permeability: % permeability ([2]; 50 μM, 12–18 h, acceptor concentration relative to equilibrium): 2.73 ± 1.02%
- Papp at 50 μM ([2]; PAMPA, pH 7.4): 0.174 ×10⁻⁶ cm/s
- Permeability% Average ([2]; PAMPA, average of R1-R3): 2.7%
- Permeability% R1 ([2]; PAMPA, replicate R1, TIC of top well sample relative to sample at theoretical equilibrium): 2.77%
- Permeability% R3 ([2]; PAMPA, replicate R3, TIC of top well sample relative to sample at theoretical equilibrium): 1.69%
- microsomal CLint ([3]; CL (ul/min/mg protein) R1, RLM CL, replicate R1): 117 µL/min/mg
- microsomal CLint ([3]; CL (ul/min/mg protein) R2, RLM CL, replicate R2): 96.6 µL/min/mg
- microsomal CLint ([3]; CL (ul/min/mg protein) R3, RLM CL, replicate R3): 95.7 µL/min/mg
- half-life ([3]; Half Life (min) R1, RLM metabolic stability, replicate R1, 0-60 min): 11.8 min
- half-life ([3]; Half Life (min) R2, RLM metabolic stability, replicate R2, 0-60 min): 14.3 min
- half-life ([3]; Half Life (min) R3, RLM metabolic stability, replicate R3, 0-60 min): 14.5 min
- half-life ([3]; Metabolic stability: Half life T1/2 (min), RLMs, mean and SD, three measurements): 13.5 ± 1.2 min
- microsomal CLint ([3]; Metabolic stability: RLM CL (ul/min/mg), RLMs, mean and SD, three measurements): 103 ± 10 µL/min/mg
- Rat alpha thrombin inhibition, slope normalized to DMSO (rat α-thrombin; [4]): 32.2 and 38.1 and 17.4
- Rat alpha thrombin inhibition, slope normalized to DMSO (rat α-thrombin; peptide 1.67E+01 uM): 45.0 and 46.6 and 55.7
- Rat alpha thrombin inhibition, slope normalized to DMSO (rat α-thrombin; peptide 2.08E+00 uM): 90.4 and 89.1 and 91.4
- Rat alpha thrombin inhibition, slope normalized to DMSO (rat α-thrombin; peptide 3.33E+01 uM): 47.9 and 19.5
- Rat alpha thrombin inhibition, slope normalized to DMSO (rat α-thrombin; peptide 4.17E+00 uM): 77.9 and 77.5 and 82.1
- Rat alpha thrombin inhibition, slope normalized to DMSO (rat α-thrombin; peptide 6.67E+01 uM): 36.2 and 41.8
- Rat alpha thrombin inhibition, slope normalized to DMSO (rat α-thrombin; peptide 8.33E+00 uM): 63.0 and 63.5 and 66.0
